In patent publication US20220380338A1, “CYCLOALKYL 3-OXOPIPERAZINE CARBOXAMIDES AND CYCLOHETEROALKYL 3-OXOPIPERAZINE CARBOXAMIDES AS NAV1.8 INHIBITORS” (Merck Sharp & Dohme LLC, priority 2021, published 2022):

target: T1, human NaV1.8 (Homo sapiens, UniProt Q9Y5Y9); assay: Nav1.8 Qube® Assay (automated 384-well patch-clamp, inhibition of sodium current); type: cell-based; conditions: human NaV1.8 channels stably expressed in HEK 293 cells, room temperature
T1 construct: expressed in transfected cells
T1 sequence (Q9Y5Y9 whole entry): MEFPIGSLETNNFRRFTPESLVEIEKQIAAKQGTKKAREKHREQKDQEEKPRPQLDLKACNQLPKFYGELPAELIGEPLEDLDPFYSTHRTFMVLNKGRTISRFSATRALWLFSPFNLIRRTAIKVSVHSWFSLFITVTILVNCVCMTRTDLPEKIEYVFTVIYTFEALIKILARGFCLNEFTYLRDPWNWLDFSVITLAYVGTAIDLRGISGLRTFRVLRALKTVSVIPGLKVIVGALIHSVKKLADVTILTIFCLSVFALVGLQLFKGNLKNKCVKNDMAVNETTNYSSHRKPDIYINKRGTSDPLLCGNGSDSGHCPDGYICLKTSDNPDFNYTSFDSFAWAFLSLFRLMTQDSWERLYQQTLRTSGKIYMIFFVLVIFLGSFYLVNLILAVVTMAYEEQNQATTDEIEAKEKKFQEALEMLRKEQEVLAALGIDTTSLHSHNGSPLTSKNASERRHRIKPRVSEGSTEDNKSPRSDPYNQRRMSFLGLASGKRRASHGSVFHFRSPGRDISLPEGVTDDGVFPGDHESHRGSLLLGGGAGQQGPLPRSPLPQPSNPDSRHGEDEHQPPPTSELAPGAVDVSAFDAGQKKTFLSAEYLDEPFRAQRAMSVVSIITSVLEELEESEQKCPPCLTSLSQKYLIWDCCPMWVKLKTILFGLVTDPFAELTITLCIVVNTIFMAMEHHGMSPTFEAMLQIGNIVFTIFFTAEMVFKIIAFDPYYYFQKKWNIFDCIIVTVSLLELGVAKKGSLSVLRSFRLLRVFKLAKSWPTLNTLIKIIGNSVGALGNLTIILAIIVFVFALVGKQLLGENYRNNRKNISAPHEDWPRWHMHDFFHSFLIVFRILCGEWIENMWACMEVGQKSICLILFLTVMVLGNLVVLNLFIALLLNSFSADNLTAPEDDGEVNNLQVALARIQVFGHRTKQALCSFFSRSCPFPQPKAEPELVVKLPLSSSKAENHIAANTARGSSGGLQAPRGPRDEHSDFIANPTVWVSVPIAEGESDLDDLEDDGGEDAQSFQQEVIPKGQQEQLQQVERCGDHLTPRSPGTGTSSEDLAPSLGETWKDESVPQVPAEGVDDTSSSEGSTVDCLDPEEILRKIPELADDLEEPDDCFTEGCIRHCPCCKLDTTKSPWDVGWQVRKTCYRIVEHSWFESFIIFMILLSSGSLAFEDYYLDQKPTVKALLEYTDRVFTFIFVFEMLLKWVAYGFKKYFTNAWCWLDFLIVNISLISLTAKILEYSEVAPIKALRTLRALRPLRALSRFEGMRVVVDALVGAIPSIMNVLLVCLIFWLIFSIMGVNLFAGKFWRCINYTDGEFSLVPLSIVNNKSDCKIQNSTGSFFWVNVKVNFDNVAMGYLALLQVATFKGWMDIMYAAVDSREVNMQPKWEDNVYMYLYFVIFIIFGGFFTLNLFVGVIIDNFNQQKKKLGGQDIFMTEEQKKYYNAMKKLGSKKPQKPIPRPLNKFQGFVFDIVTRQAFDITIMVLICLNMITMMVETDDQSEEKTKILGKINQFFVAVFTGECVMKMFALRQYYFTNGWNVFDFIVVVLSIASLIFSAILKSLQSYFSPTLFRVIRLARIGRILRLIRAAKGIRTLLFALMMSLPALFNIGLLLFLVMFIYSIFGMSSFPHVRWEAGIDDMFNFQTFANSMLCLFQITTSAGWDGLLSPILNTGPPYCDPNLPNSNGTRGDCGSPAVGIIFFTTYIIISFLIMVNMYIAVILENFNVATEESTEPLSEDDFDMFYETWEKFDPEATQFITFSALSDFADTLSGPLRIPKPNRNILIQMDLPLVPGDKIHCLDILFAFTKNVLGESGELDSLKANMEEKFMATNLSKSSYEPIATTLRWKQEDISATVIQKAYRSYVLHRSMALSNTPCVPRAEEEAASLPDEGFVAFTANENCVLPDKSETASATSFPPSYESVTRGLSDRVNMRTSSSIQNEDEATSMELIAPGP
Outline: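 Whole-cell voltage clamp at room temperature in HEK293 cells stably expressing NaV1.8; from −90 mV hold, 10 s 1 Hz train of 20 ms pulses to 10 mV with 980 ms repolarization to −67 mV. Peak currents of 1st and 10th pulses give resting and inactivated-state IC50s, Hill fit.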

| IC50 [nM] | Structure (SMILES) |
| --- | --- |
| 172 | C[C@@H]1C(=O)NCCN1C(=O)NC(c1ccc(F)c(Cl)c1)C1CC(OCC(F)(F)F)C1 (single isomer, unassigned) [Example 44C, (2R)—N—((R or S)-(3-chloro-4-fluorophenyl)(trans-3-(2,2,2-trifluoroethoxy)cyclobutyl)methyl)-2-methyl-3-oxopiperazine-1-carboxamide] |
| 22.7 | C[C@@H]1C(=O)NCCN1C(=O)NC(c1ccc(F)c(Cl)c1)C1CC(OCC(F)(F)F)C1 (single isomer, unassigned) [Example 44D, (2R)—N—((S or R)-(3-chloro-4-fluorophenyl)(trans-3-(2,2,2-trifluoroethoxy)cyclobutyl)methyl)-2-methyl-3-oxopiperazine-1-carboxamide] |
| 283 | O=C1CN(C(=O)NC(c2ccc(Cl)c(C(F)(F)F)n2)C2CCC(C(F)(F)F)CC2)CCN1 (single isomer, unassigned) [Example 45A] |
| 5.27 | O=C1CN(C(=O)NC(c2ccc(Cl)c(C(F)(F)F)n2)C2CCC(C(F)(F)F)CC2)CCN1 (single isomer, unassigned) [Example 45B] |
| 343 | C[C@@H]1C(=O)NCCN1C(=O)NC(c1ccc(Cl)c(C(F)(F)F)n1)C1CCC(F)(F)CC1 (single isomer, unassigned) [Example 46A, (2R)-N-((R or S)-(5-chloro-6-(trifluoro-methyl)pyridin-2-yl)(4,4-difluoro-cyclohexyl)methyl)-2-methyl-3-oxo-piperazine-1-carboxamide] |
| 23.7 | C[C@@H]1C(=O)NCCN1C(=O)NC(c1ccc(Cl)c(C(F)(F)F)n1)C1CCC(F)(F)CC1 (single isomer, unassigned) [Example 46B, (2R)-N-((S or R)-(5-chloro-6-(trifluoro-methyl)pyridin-2-yl)(4,4-difluoro-cyclohexyl)methyl)-2-methyl-3-oxo-piperazine-1-carboxamide] |
| 11.4 | C[C@@H]1C(=O)NCCN1C(=O)NC(c1ccc(Cl)c(C(F)(F)F)n1)C1CC(C(F)(F)F)C1 (single isomer, unassigned) [Example 47A, (2R)—N—((R or S)-(5-chloro-6-(trifluoromethyl)pyridin-2-yl)(cis-3-(trifluoromethyl)-cyclobutyl)methyl)-2-methyl-3-oxopiperazine-1-carboxamide] |
| 61.8 | C[C@@H]1C(=O)NCCN1C(=O)NC(c1ccc(Cl)c(C(F)(F)F)n1)C1CC(C(F)(F)F)C1 (single isomer, unassigned) [Example 47B, (2R)—N—((R or S)-(5-chloro-6-(trifluoromethyl)pyridin-2-yl)(trans-3-(trifluoromethyl)cyclobutyl)methyl)-2-methyl-3-oxopiperazine-1-carboxamide] |
| 2.66 | C[C@@H]1C(=O)NCCN1C(=O)NC(c1ccc(Cl)c(C(F)(F)F)n1)C1CC(C(F)(F)F)C1 (single isomer, unassigned) [Example 47C, (2R)—N—((S or R)-(5-chloro-6-(trifluoromethyl)pyridin-2-yl)(trans-3-(trifluoromethyl)cyclobutyl)methyl)-2-methyl-3-oxopiperazine-1-carboxamide] |
| 36.6 | C[C@@H]1C(=O)NCCN1C(=O)NC(c1ccc(Cl)c(C(F)(F)F)n1)C1CC(C(F)(F)F)C1 (single isomer, unassigned) [Example 47D, (2R)—N—((S or R)-(5-chloro-6-(trifluoromethyl)pyridin-2-yl)(cis-3-(trifluoromethyl)-cyclobutyl)methyl)-2-methyl-3-oxopiperazine-1-carboxamide] |
| 4370 | C[C@@H]1C(=O)NCCN1C(=O)NC(C)(c1ccc(F)c(Cl)c1)C1CC(C(F)(F)F)C1 (single isomer, unassigned) [Example 48A, (2R)—N—((R or S)-1-(3-chloro-4-fluorophenyl)-1-(cis-3-(trifluoromethyl)cyclobutyl)ethyl)-2-methyl-3-oxopiperazine-1-carboxamide] |
| 904 | C[C@@H]1C(=O)NCCN1C(=O)NC(C)(c1ccc(F)c(Cl)c1)C1CC(C(F)(F)F)C1 (single isomer, unassigned) [Example 48B, (2R)—N—((R or S)-1-(3-chloro-4-fluorophenyl)-1-(trans-3-(trifluoromethyl)cyclobutyl)ethyl)-2-methyl-3-oxopiperazine-1-carboxamide] |
| 312 | C[C@@H]1C(=O)NCCN1C(=O)NC(C)(c1ccc(F)c(Cl)c1)C1CC(C(F)(F)F)C1 (single isomer, unassigned) [Example 48C, (2R)—N—((S or R)-1-(3-chloro-4-fluorophenyl)-1-(cis-3-(trifluoromethyl)cyclobutyl)ethyl)-2-methyl-3-oxopiperazine-1-carboxamide] |
| 515 | C[C@@H]1C(=O)NCCN1C(=O)NC(C)(c1ccc(F)c(Cl)c1)C1CC(C(F)(F)F)C1 (single isomer, unassigned) [Example 48D, (2R)—N—((S or R)-1-(3-chloro-4-fluorophenyl)-1-(trans-3-(trifluoromethyl)cyclobutyl)ethyl)-2-methyl-3-oxopiperazine-1-carboxamide] |
| 4.46 | C[C@@H]1C(=O)NCCN1C(=O)NC(c1ccc(OC(F)(F)F)c(F)c1)[C@H]1C[C@H](C(F)(F)F)C1 (single isomer, unassigned) [Example 49A] |
| 84.6 | C[C@@H]1C(=O)NCCN1C(=O)NC(c1ccc(OC(F)(F)F)c(F)c1)[C@H]1C[C@H](C(F)(F)F)C1 (single isomer, unassigned) [Example 49B] |
| 389 | C[C@@H]1C(=O)NCCN1C(=O)NC(c1ccc(OC(F)(F)F)cc1F)[C@H]1C[C@H](C(F)(F)F)C1 (single isomer, unassigned) [Example 50A, ((2R)-N-((R or S)-(2-fluoro-4-(trifluoro-methoxy)phenyl)(trans-3-(trifluoromethyl)-cyclobutyl)methyl)-2-methyl-3-oxopiperazine-1-carboxamide] |
| 9.01 | C[C@@H]1C(=O)NCCN1C(=O)NC(c1ccc(OC(F)(F)F)cc1F)[C@H]1C[C@H](C(F)(F)F)C1 (single isomer, unassigned) [Example 50B, (2R)-N-((S or R)-(2-fluoro-4-(trifluoro-methoxy)phenyl)(trans-3-(trifluoro-methyl)-cyclobutyl)-methyl)-2-methyl-3-oxopiperazine-1-carboxamide] |
| 117 | C[C@@H]1C(=O)NCCN1C(=O)NC(c1ccc(F)c(C(F)(F)F)c1)[C@H]1C[C@H](C(F)(F)F)C1 (single isomer, unassigned) [Example 51A, (2R)-N-((R or S)-(4-fluoro-3-(trifluoro-methyl)phenyl)(trans-3-(trifluoro-methyl)-cyclo-butyl)methyl)-2-methyl-3-oxo-piperazine-1-carboxamide] |
| 3.03 | C[C@@H]1C(=O)NCCN1C(=O)NC(c1ccc(F)c(C(F)(F)F)c1)[C@H]1C[C@H](C(F)(F)F)C1 (single isomer, unassigned) [Example 51B, (2R)-N-((S or R)-(4-fluoro-3-(trifluoro-methyl)phenyl)(trans-3-(trifluoro-methyl)-cyclobutyl)methyl)-2-methyl-3-oxopiperazine-1-carboxamide] |
| 320 | O=C1CN(C(=O)NC(c2ccc(F)c(C(F)(F)F)c2)[C@H]2C[C@H](C(F)(F)F)C2)CCN1 (single isomer, unassigned) [Example 52A, N-((R or S)-(4-fluoro-3-(trifluoromethyl)phenyl) (trans-3-(trifluoro-methyl)cyclobutyl)-methyl)-3-oxo-piperazine-1-carboxamide] |
| 11.8 | O=C1CN(C(=O)NC(c2ccc(F)c(C(F)(F)F)c2)[C@H]2C[C@H](C(F)(F)F)C2)CCN1 (single isomer, unassigned) [Example 52B, N-((S or R)-(4-fluoro-3-(trifluoromethyl)phenyl) (trans-3-(trifluoro-methyl)cyclobutyl)-methyl)-3-oxo-piperazine-1-carboxamide] |
| 538 | C[C@@H]1C(=O)NCCN1C(=O)NC(c1cccc(Cl)c1F)[C@H]1C[C@H](C(F)(F)F)C1 (single isomer, unassigned) [Example 53A, (2R)-N-((R or S)-(3-chloro-2-fluorophenyl)-(trans-3-(trifluoro-methyl)cyclobutyl)meth-yl)-2-methyl-3-oxo-piperazine-1-carboxamide] |
| 9.06 | C[C@@H]1C(=O)NCCN1C(=O)NC(c1cccc(Cl)c1F)[C@H]1C[C@H](C(F)(F)F)C1 (single isomer, unassigned) [Example 53B, (2R)-N-((S or R)-(3-chloro-2-fluorophenyl)-(trans-3-(trifluoro-methyl)cyclobutyl)meth-yl)-2-methyl-3-oxo-piperazine-1-carboxamide] |
| 1.7 | C[C@@H]1C(=O)NCCN1C(=O)NC(c1ccc(OC(F)(F)F)c(Cl)c1)C1CC(C(F)(F)F)C1 (single isomer, unassigned) [Example 54A, (2R)-N-((R or S)-(3-chloro-4-(trifluoro-methoxy)phenyl)(3-(trifluoromethyl)cyclo-butyl)methyl)-2-methyl-3-oxopiperazine-1-carboxamide] |
| 4.18 | C[C@@H]1C(=O)NCCN1C(=O)NC(c1ccc(OC(F)(F)F)c(Cl)c1)C1CC(C(F)(F)F)C1 (single isomer, unassigned) [Example 54B, (2R)-N-((S or R)-(3-chloro-4-(trifluoro-methoxy)phenyl)(3-(trifluoromethyl)cyclo-butyl)methyl)-2-methyl-3-oxopiperazine-1-carboxamide] |
| 494 | C[C@@H]1C(=O)NCCN1C(=O)NC(c1csc(C(F)(F)F)n1)[C@H]1CC[C@H](C(F)(F)F)CC1 (single isomer, unassigned) [Example 55A] |
| 26.3 | C[C@@H]1C(=O)NCCN1C(=O)NC(c1csc(C(F)(F)F)n1)[C@H]1CC[C@H](C(F)(F)F)CC1 (single isomer, unassigned) [Example 55B] |
| 566 | C[C@@H]1C(=O)NCCN1C(=O)NC(c1ccc(F)c(Cl)c1F)[C@H]1C[C@@H]1C(F)(F)F (single isomer, unassigned) [Example 57C] |
